According to patent US10844077B2, “Thiazolyl-containing compounds for treating proliferative diseases” (Dana-Farber Cancer Institute, Inc., priority 2014, dated 2020):
Like-named read-outs stand apart in the source and are kept apart here.

Legend:
Format in all cases: binding
[1] = target: broad panel of kinases (Homo sapiens, UniProt O14920); conditions: IKK-beta; 1 μM
[2] = target: broad panel of kinases (Homo sapiens, UniProt Q9Y2H9); conditions: MAST1; 1 μM
[3] = target: broad panel of kinases (Homo sapiens, UniProt Q9BRS2); conditions: RIOK1; 1 μM
[4] = target: broad panel of kinases (Homo sapiens, UniProt Q04771); conditions: ACVR1; 1 μM
[5] = target: broad panel of kinases (Homo sapiens, UniProt Q9H093); conditions: SNARK; 1 μM
[6] = target: broad panel of kinases (Homo sapiens, UniProt P49137)
[7] = target: broad panel of kinases (Homo sapiens, UniProt P53355); conditions: DAPK1; 1 μM
[8] = target: broad panel of kinases (Homo sapiens, UniProt P04626); conditions: ERBB2; 1 μM
[9] = target: broad panel of kinases (Homo sapiens, UniProt O00329); conditions: PIK3CD; 1 μM
[10] = target: broad panel of kinases (Homo sapiens, UniProt P51812); conditions: 1 μM
[11] = target: broad panel of kinases (Homo sapiens, UniProt P00519, M351T); conditions: ABL1(M351T)-phosphorylated; 1 μM
[12] = target: broad panel of kinases (Homo sapiens, UniProt Q14289); conditions: PYK2; 1 μM
[13] = target: broad panel of kinases (Homo sapiens, UniProt Q9BX84); conditions: TRPM6; 1 μM
[14] = target: broad panel of kinases (Homo sapiens, UniProt Q9UKE5); conditions: TNIK; 1 μM
[15] = target: broad panel of kinases (Homo sapiens, UniProt Q05397); conditions: FAK; 1 μM
[16] = target: broad panel of kinases (Homo sapiens, UniProt Q15418); conditions: 1 μM
[17] = target: broad panel of kinases (Homo sapiens, UniProt Q9Y463); conditions: DYRK1B; 1 μM
[18] = target: broad panel of kinases (Homo sapiens, UniProt P06213); conditions: INSR; 1 μM
[19] = target: broad panel of kinases (Homo sapiens, UniProt P49760); conditions: CLK2; 1 μM
[20] = target: broad panel of kinases (Homo sapiens, UniProt Q8IVH8); conditions: MAP4K3; 1 μM
[21] = target: broad panel of kinases (Homo sapiens, UniProt P00519, H396P); conditions: 1 μM
[22] = tested on: broad panel of kinases; conditions: 1 μM
[23] = target: broad panel of kinases (Homo sapiens, UniProt Q9UQB9); conditions: AURKC; 1 μM
[24] = target: broad panel of kinases (Homo sapiens, UniProt Q8WU08); conditions: YANK1; 1 μM
[25] = target: broad panel of kinases (Homo sapiens, UniProt Q9NSY1); conditions: BIKE; 1 μM
[26] = target: broad panel of kinases (Homo sapiens, UniProt Q9BXA7); conditions: TSSK1B; 1 μM
[27] = target: broad panel of kinases (Homo sapiens, UniProt P16234); conditions: PDGFRA; 1 μM
[28] = target: broad panel of kinases (Homo sapiens, UniProt P00533); conditions: EGFR; 1 μM
[29] = target: broad panel of kinases (Homo sapiens, UniProt Q9NQU5); conditions: PAK6; 1 μM
[30] = target: broad panel of kinases (Homo sapiens, UniProt P36896); conditions: ACVR1B; 1 μM
[31] = target: broad panel of kinases (Homo sapiens, UniProt Q8NI60); conditions: ADCK3; 1 μM
[32] = target: broad panel of kinases (Homo sapiens, UniProt Q15139); conditions: PRKD1; 1 μM
[33] = target: broad panel of kinases (Homo sapiens, UniProt Q9NY57); conditions: YANK2; 1 μM
[34] = target: broad panel of kinases (Homo sapiens, UniProt Q92630); conditions: DYRK2; 1 μM
[35] = target: broad panel of kinases (Homo sapiens, UniProt O95819); conditions: MAP4K4; 1 μM
[36] = target: broad panel of kinases (Homo sapiens, UniProt P00533, DEL752-759); conditions: EGFR(S752-I759del); 1 μM

Sequence of broad panel of kinases (Homo sapiens, UniProt P04626) (P04626 23-1255 limits assumed): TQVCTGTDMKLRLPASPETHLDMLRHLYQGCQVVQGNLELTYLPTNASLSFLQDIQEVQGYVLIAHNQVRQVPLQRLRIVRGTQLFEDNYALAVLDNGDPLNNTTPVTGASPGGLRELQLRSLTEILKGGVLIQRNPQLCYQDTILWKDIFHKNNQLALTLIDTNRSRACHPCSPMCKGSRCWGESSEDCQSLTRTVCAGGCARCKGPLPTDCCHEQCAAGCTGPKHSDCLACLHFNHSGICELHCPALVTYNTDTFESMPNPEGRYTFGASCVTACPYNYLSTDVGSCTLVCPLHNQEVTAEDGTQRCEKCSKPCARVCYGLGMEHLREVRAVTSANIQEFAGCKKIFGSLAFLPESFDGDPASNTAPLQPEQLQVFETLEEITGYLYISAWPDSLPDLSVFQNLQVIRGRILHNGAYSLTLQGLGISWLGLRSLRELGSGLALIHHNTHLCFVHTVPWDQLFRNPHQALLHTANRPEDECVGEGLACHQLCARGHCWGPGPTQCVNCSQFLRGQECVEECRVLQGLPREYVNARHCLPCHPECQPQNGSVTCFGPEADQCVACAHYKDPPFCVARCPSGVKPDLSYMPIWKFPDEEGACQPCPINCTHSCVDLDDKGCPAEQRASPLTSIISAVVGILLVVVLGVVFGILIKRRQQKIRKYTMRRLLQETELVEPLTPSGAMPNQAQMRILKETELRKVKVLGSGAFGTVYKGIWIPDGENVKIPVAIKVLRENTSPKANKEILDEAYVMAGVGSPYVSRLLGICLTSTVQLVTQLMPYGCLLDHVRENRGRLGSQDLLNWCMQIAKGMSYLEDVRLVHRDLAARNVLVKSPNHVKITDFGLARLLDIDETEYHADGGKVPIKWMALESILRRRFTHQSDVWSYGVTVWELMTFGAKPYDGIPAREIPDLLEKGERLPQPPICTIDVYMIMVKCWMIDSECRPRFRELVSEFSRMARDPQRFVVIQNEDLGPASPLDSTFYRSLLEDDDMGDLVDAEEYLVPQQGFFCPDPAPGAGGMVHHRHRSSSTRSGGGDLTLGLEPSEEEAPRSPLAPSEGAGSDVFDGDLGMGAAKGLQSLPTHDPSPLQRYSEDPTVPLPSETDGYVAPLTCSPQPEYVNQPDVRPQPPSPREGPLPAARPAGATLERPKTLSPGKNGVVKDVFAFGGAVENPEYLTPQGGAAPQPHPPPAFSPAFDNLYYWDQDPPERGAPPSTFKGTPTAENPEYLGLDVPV
Sequence of broad panel of kinases (Homo sapiens, UniProt P36896) (P36896 24-505 limits assumed): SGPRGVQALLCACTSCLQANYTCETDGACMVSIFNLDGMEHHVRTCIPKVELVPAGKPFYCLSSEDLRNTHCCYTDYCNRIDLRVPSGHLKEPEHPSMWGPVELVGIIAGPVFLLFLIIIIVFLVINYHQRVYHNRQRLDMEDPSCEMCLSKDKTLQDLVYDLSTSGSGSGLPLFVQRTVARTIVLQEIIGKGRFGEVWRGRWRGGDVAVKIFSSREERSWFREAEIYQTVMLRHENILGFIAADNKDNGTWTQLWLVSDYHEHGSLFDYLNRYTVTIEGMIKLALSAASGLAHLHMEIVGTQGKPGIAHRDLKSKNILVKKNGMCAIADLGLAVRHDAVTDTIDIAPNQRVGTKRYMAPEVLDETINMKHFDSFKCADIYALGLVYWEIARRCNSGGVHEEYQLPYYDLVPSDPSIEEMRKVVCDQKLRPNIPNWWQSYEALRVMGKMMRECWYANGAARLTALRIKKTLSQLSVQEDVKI
Sequence of broad panel of kinases (Homo sapiens, UniProt P06213) (P06213 28-758 limits assumed): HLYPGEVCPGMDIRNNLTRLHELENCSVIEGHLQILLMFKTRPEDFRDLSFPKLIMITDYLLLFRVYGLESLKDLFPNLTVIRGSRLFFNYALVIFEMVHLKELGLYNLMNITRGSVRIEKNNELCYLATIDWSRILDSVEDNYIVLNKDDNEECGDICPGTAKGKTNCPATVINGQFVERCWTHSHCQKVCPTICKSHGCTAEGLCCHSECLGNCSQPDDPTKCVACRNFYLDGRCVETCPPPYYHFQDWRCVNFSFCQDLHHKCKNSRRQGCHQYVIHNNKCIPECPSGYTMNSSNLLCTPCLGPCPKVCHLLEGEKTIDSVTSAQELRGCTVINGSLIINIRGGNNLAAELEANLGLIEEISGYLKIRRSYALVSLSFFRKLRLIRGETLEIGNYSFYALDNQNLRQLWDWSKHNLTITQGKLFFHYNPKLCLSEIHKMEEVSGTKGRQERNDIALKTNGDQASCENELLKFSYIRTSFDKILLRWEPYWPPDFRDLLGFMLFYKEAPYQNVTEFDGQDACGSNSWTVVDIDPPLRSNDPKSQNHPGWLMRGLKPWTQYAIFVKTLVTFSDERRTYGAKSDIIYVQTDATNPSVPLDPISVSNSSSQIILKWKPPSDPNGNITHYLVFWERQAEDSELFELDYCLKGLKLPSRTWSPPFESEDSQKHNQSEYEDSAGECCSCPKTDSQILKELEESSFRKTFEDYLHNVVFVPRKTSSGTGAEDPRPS
Sequence of broad panel of kinases (Homo sapiens, UniProt P06213) (P06213 763-1382 limits assumed): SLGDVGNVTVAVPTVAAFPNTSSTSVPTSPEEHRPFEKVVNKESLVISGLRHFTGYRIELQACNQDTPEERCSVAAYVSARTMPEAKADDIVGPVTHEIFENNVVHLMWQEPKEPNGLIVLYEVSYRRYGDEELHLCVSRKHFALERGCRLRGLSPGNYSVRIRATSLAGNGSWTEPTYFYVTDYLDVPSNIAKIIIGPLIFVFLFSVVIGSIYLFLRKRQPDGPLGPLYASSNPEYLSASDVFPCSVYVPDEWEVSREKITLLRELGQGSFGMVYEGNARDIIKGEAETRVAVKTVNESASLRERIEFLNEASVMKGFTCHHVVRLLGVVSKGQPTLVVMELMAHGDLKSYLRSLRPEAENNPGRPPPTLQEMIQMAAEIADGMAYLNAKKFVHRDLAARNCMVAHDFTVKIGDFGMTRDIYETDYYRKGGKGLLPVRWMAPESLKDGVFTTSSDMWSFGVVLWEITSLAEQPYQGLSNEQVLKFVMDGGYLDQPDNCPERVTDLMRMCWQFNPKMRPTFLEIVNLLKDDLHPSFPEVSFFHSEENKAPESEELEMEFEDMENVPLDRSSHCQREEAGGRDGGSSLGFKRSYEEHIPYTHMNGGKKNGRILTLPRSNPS
Sequence of broad panel of kinases (Homo sapiens, UniProt P00533) (P00533 25-1210 limits assumed): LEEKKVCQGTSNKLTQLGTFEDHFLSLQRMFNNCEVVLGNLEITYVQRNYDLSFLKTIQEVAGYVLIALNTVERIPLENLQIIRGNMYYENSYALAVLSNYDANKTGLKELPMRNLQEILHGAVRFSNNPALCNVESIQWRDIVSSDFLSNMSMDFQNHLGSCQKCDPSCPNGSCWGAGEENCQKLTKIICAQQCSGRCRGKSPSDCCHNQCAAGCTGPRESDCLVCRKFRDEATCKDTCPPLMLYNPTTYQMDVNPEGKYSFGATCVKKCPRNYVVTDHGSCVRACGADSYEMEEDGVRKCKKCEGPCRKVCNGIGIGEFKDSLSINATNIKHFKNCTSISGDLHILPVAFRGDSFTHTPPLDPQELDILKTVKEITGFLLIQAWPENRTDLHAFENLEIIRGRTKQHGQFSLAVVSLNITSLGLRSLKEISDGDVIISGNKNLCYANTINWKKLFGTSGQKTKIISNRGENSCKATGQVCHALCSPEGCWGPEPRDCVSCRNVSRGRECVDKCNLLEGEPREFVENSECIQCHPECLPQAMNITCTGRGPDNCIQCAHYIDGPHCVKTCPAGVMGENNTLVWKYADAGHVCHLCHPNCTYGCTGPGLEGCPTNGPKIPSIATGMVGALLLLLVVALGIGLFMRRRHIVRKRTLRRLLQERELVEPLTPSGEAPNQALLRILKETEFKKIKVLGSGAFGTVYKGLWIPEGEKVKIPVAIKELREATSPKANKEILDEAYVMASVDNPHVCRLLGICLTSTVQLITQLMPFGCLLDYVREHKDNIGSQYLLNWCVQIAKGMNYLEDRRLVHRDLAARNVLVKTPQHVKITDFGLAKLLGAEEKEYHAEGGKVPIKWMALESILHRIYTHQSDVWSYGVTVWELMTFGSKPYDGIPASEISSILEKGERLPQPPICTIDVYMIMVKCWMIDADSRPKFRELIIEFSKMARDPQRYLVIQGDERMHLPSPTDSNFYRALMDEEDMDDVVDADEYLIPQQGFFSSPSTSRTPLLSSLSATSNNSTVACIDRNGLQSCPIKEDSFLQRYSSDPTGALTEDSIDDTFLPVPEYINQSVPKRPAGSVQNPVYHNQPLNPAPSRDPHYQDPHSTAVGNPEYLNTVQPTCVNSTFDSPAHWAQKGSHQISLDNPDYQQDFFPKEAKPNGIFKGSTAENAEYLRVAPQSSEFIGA
Sequence of broad panel of kinases (Homo sapiens, UniProt Q04771) (Q04771 21-509 limits assumed): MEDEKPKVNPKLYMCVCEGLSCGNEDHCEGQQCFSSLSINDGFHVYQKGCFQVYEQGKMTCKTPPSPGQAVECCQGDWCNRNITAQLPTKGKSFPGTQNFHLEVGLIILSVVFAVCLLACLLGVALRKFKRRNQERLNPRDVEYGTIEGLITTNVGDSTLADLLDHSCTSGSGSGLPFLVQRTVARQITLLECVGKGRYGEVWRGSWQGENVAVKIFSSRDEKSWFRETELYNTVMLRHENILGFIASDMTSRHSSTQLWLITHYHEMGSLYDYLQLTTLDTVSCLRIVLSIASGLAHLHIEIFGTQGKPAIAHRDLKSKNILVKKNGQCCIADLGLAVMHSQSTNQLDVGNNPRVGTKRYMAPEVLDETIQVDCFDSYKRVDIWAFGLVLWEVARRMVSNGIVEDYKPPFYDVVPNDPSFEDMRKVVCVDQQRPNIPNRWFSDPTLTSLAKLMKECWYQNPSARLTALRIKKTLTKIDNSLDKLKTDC

Compound: C=CC(=O)N1CC[C@H](Nc2nc(CN3CCOCC3)cc(Nc3ncc(C(=O)Nc4c(C)cccc4C)s3)n2)C1 [Example I-2]
- percent of control binding remaining (lower = stronger binding) [1]: 75%
- percent of control binding remaining (lower = stronger binding) [2]: 98%
- percent of control binding remaining (lower = stronger binding) [3]: 90%
- percent of control binding remaining (lower = stronger binding) [4]: 74%
- percent of control binding remaining (lower = stronger binding) [5]: 100%
- % change compared to control [6]: 100%
- percent of control binding remaining (lower = stronger binding) [7]: 100%
- percent of control binding remaining (lower = stronger binding) [8]: 7.5%
- percent of control binding remaining (lower = stronger binding) [9]: 79%
- percent of control binding remaining (lower = stronger binding) ([10]; RSK2(Kin.Dom.1-N-terminal)): 95%
- percent of control binding remaining (lower = stronger binding) ([10]; RSK2(Kin.Dom.2-C-terminal)): 100%
- percent of control binding remaining (lower = stronger binding) [11]: 0.6%
- percent of control binding remaining (lower = stronger binding) [12]: 100%
- percent of control binding remaining (lower = stronger binding) [13]: 61%
- percent of control binding remaining (lower = stronger binding) [14]: 97%
- percent of control binding remaining (lower = stronger binding) [15]: 100%
- percent of control binding remaining (lower = stronger binding) ([16]; RSK1(Kin.Dom.1-N-terminal)): 73%
- percent of control binding remaining (lower = stronger binding) ([16]; RSK1(Kin.Dom.2-C-terminal)): 100%
- percent of control binding remaining (lower = stronger binding) [17]: 94%
- percent of control binding remaining (lower = stronger binding) [18]: 67%
- percent of control binding remaining (lower = stronger binding) [19]: 100%
- percent of control binding remaining (lower = stronger binding) [20]: 100%
- percent of control binding remaining (lower = stronger binding) ([21]; ABL1(H396P)-nonphosphorylated): 0%
- percent of control binding remaining (lower = stronger binding) ([21]; ABL1(H396P)-phosphorylated): 0%
- percent of control binding remaining (lower = stronger binding) ([22]; EGFR(L747-E749del, A750P)): 2.2%
- percent of control binding remaining (lower = stronger binding) ([22]; EGFR(L747-S752del, P753S)): 3.6%
- percent of control binding remaining (lower = stronger binding) ([22]; EGFR(L747-T751del, Sins)): 2%
- percent of control binding remaining (lower = stronger binding) ([22]; FLT3(ITD)): 92%
- percent of control binding remaining (lower = stronger binding) [23]: 90%
- percent of control binding remaining (lower = stronger binding) [24]: 100%
- percent of control binding remaining (lower = stronger binding) [25]: 100%
- percent of control binding remaining (lower = stronger binding) [26]: 73%
- percent of control binding remaining (lower = stronger binding) [27]: 4.5%
- percent of control binding remaining (lower = stronger binding) [28]: 5.6%
- percent of control binding remaining (lower = stronger binding) [29]: 93%
- percent of control binding remaining (lower = stronger binding) [30]: 68%
- percent of control binding remaining (lower = stronger binding) [31]: 9.2%
- percent of control binding remaining (lower = stronger binding) [32]: 93%
- percent of control binding remaining (lower = stronger binding) [33]: 100%
- percent of control binding remaining (lower = stronger binding) [34]: 88%
- percent of control binding remaining (lower = stronger binding) [35]: 96%
- percent of control binding remaining (lower = stronger binding) [36]: 17%

Compound: C=CC(=O)N1CC[C@H](Nc2nccc(Nc3ncc(C(=O)Nc4c(C)cccc4C)s3)n2)C1 [Example I-3]
- percent of control binding remaining (lower = stronger binding) [1]: 86%
- percent of control binding remaining (lower = stronger binding) [2]: 93%
- percent of control binding remaining (lower = stronger binding) [3]: 82%
- percent of control binding remaining (lower = stronger binding) [4]: 100%
- percent of control binding remaining (lower = stronger binding) [5]: 100%
- % change compared to control [6]: 100%
- percent of control binding remaining (lower = stronger binding) [7]: 100%
- percent of control binding remaining (lower = stronger binding) [8]: 0.8%
- percent of control binding remaining (lower = stronger binding) [9]: 85%
- percent of control binding remaining (lower = stronger binding) ([10]; RSK2(Kin.Dom.1-N-terminal)): 97%
- percent of control binding remaining (lower = stronger binding) ([10]; RSK2(Kin.Dom.2-C-terminal)): 100%
- % change compared to control [11]: 0.7%
- percent of control binding remaining (lower = stronger binding) [12]: 100%
- percent of control binding remaining (lower = stronger binding) [13]: 63%
- percent of control binding remaining (lower = stronger binding) [14]: 93%
- percent of control binding remaining (lower = stronger binding) [15]: 100%
- percent of control binding remaining (lower = stronger binding) ([16]; RSK1(Kin.Dom.1-N-terminal)): 91%
- percent of control binding remaining (lower = stronger binding) ([16]; RSK1(Kin.Dom.2-C-terminal)): 100%
- percent of control binding remaining (lower = stronger binding) [17]: 74%
- percent of control binding remaining (lower = stronger binding) [18]: 93%
- percent of control binding remaining (lower = stronger binding) [19]: 96%
- percent of control binding remaining (lower = stronger binding) [20]: 100%
- % change compared to control ([21]; ABL1(H396P)-nonphosphorylated): 0.05%
- % change compared to control ([21]; ABL1(H396P)-phosphorylated): 0%
- percent of control binding remaining (lower = stronger binding) ([22]; EGFR(L747-E749del, A750P)): 1.4%
- percent of control binding remaining (lower = stronger binding) ([22]; EGFR(L747-S752del, P753S)): 3.6%
- percent of control binding remaining (lower = stronger binding) ([22]; EGFR(L747-T751del, Sins)): 4.2%
- percent of control binding remaining (lower = stronger binding) ([22]; FLT3(ITD)): 98%
- percent of control binding remaining (lower = stronger binding) [23]: 71%
- percent of control binding remaining (lower = stronger binding) [24]: 84%
- percent of control binding remaining (lower = stronger binding) [25]: 90%
- percent of control binding remaining (lower = stronger binding) [26]: 100%
- percent of control binding remaining (lower = stronger binding) [27]: 6.5%
- percent of control binding remaining (lower = stronger binding) [28]: 2.6%
- percent of control binding remaining (lower = stronger binding) [29]: 84%
- percent of control binding remaining (lower = stronger binding) [30]: 100%
- percent of control binding remaining (lower = stronger binding) [31]: 49%
- percent of control binding remaining (lower = stronger binding) [32]: 94%
- percent of control binding remaining (lower = stronger binding) [33]: 96%
- percent of control binding remaining (lower = stronger binding) [34]: 74%
- percent of control binding remaining (lower = stronger binding) [35]: 96%
- percent of control binding remaining (lower = stronger binding) [36]: 4.6%
